Data on 1 substance can be found in patent US6251932A, “Immunophilin ligands” (ASTA Medica AG, priority 1998, dated 2001).

Assay [1] has as its system IL-2 proliferation. Description: Inhibition of IL-2 proliferation (published indoline-2-carboxamide). The assay is classed as cell-based. To be noted: 10 μmol; new measurements. The source says: A further compound having immunosuppressant properties was discovered during the screening of substance mixtures (G. Quinkert, H. Bang and D. Reichert, Helv. Chim. Acta 1996, 79, 1260).

Assay [2] relates to IL-2 proliferation. The conditions noted are these: published, cited from earlier work.

Read-outs that look alike come from different tables or passages of the source.

As for indoline-2-carboxamide, in the assay on IL-2 proliferation [1], the “IL-2-dependent inhibition of proliferation” value was found to be 29%. Moreover, the “inhibition of IL-2 proliferation” value in the assay with IL-2 proliferation [2] (1 μmol) was 12%; in the assay on IL-2 proliferation [2] (10 μmol), 77%.
